Measured values published in publication PMC7719179, “Small molecule inhibition of Dynamin-dependent endocytosis targets multiple niche signals and impairs leukemia stem cells” (Nature Communications, 2020).
Where “and” joins values, the source holds several entries; their conditions need not be identical. Equal entries are not always repeated. Where two headings read alike, the source gives them in different places.

Experiments:
[1] = test system: IL-3R, GM-CSFR and KIT internalization in patient-derived AML cells; assay: Surface expression of IL-3R, GM-CSFR and KIT in patient-derived AML cells; type: cell-based, human; settings: for GM-CSFR FOLD / IL-3R FOLD / KIT FOLD: relative expression vs Unstimulated
[2] = test system: patient-derived ETP-ALL and T-ALL xenografts; assay: Relative viability and LC50 on patient-derived ETP-ALL and T-ALL xenografts, 48 h; type: cell-based, human; design: Relative % viable cells: unit of the concentration uncertain; settings: for CC50: Homo sapiens, read-out: LC50 Dynole 34-2
Source text: patient-derived (a ) ETP- ALL1 and (b) T-ALL 2 xenografts treated with increasing concentration of […]
Viability was normalized to vehicle-treated cells with experiments performed in duplicates. Human CD34-positive (CD34+) hematopoietic stem and progenitors from healthy donors (N=3) were used as controls. […]

SMILES: CCCCCCCCNC(=O)C(C#N)=Cc1cn(CCCN(C)C)c2ccccc12 [Dynole 34-2, 2-Cyano-N-octyl-3-(1-(3-dimethylaminopropyl)-1H-indol-3-yl)-acrylamide]
- GM-CSFR MFI ([1]; AML01-021): 11447 MFI
- IL-3R MFI ([1]; AML01-021): 745 MFI
- KIT MFI ([1]; AML01-021): 1568 MFI
- GM-CSFR FOLD ([1]; AML01-021): 1.03
- IL-3R FOLD ([1]; AML01-021): 1.00
- KIT FOLD ([1]; AML01-021): 0.89
- GM-CSFR MFI ([1]; AML01-050): 15894 MFI
- IL-3R MFI ([1]; AML01-050): 4010 MFI
- KIT MFI ([1]; AML01-050): 273 MFI
- GM-CSFR FOLD ([1]; AML01-050): 1.01
- IL-3R FOLD ([1]; AML01-050): 1.14
- KIT FOLD ([1]; AML01-050): 1.25
- GM-CSFR MFI ([1]; AML01-072): 971 MFI
- IL-3R MFI ([1]; AML01-072): 7383 MFI
- KIT MFI ([1]; AML01-072): 1318 MFI
- GM-CSFR FOLD ([1]; AML01-072): 1.12
- IL-3R FOLD ([1]; AML01-072): 1.05
- KIT FOLD ([1]; AML01-072): 1.74
- GM-CSFR MFI ([1]; AML01-226): 10157 MFI
- IL-3R MFI ([1]; AML01-226): 983 MFI
- KIT MFI ([1]; AML01-226): 612 MFI
- GM-CSFR FOLD ([1]; AML01-226): 1.05
- IL-3R FOLD ([1]; AML01-226): 0.99
- KIT FOLD ([1]; AML01-226): 0.58
- GM-CSFR MFI ([1]; AML01-307): 649 MFI
- IL-3R MFI ([1]; AML01-307): 4023 MFI
- KIT MFI ([1]; AML01-307): 5991 MFI
- GM-CSFR FOLD ([1]; AML01-307): 1.01
- IL-3R FOLD ([1]; AML01-307): 0.94
- KIT FOLD ([1]; AML01-307): 0.93
- GM-CSFR MFI ([1]; AML02-078): 13405 MFI
- IL-3R MFI ([1]; AML02-078): 4410 MFI
- KIT MFI ([1]; AML02-078): 1516 MFI
- GM-CSFR FOLD ([1]; AML02-078): 1.27
- IL-3R FOLD ([1]; AML02-078): 1.17
- KIT FOLD ([1]; AML02-078): 0.91
- GM-CSFR MFI ([1]; AML02-123): 1180 MFI
- IL-3R MFI ([1]; AML02-123): 2544 MFI
- KIT MFI ([1]; AML02-123): 34855 MFI
- GM-CSFR FOLD ([1]; AML02-123): 1.42
- IL-3R FOLD ([1]; AML02-123): 1.10
- KIT FOLD ([1]; AML02-123): 0.82
- GM-CSFR MFI ([1]; AML02-232): 16645 MFI
- IL-3R MFI ([1]; AML02-232): 506 MFI
- KIT MFI ([1]; AML02-232): 357 MFI
- GM-CSFR FOLD ([1]; AML02-232): 1.09
- IL-3R FOLD ([1]; AML02-232): 1.00
- KIT FOLD ([1]; AML02-232): 0.82
- GM-CSFR MFI ([1]; AML03-330): 10769 MFI
- IL-3R MFI ([1]; AML03-330): 356 MFI
- KIT MFI ([1]; AML03-330): 372 MFI
- GM-CSFR FOLD ([1]; AML03-330): 1.12
- IL-3R FOLD ([1]; AML03-330): 0.98
- KIT FOLD ([1]; AML03-330): 0.79
- GM-CSFR MFI ([1]; AML03-331): 9530 MFI
- IL-3R MFI ([1]; AML03-331): 798 MFI
- KIT MFI ([1]; AML03-331): 1709 MFI
- GM-CSFR FOLD ([1]; AML03-331): 0.88
- IL-3R FOLD ([1]; AML03-331): 1.00
- KIT FOLD ([1]; AML03-331): 0.98
- GM-CSFR MFI ([1]; AML4): 853 MFI
- IL-3R MFI ([1]; AML4): 1014 MFI
- KIT MFI ([1]; AML4): 5020 MFI
- GM-CSFR FOLD ([1]; AML4): 1.48
- IL-3R FOLD ([1]; AML4): 0.99
- KIT FOLD ([1]; AML4): 0.98
- GM-CSFR MFI ([1]; AML16): 4656 MFI
- IL-3R MFI ([1]; AML16): 827 MFI
- KIT MFI ([1]; AML16): 6207 MFI
- GM-CSFR FOLD ([1]; AML16): 0.80
- IL-3R FOLD ([1]; AML16): 0.78
- KIT FOLD ([1]; AML16): 0.87
- GM-CSFR MFI ([1]; AML17): 9268 MFI
- IL-3R MFI ([1]; AML17): 6591 MFI
- KIT MFI ([1]; AML17): 21009 MFI
- GM-CSFR FOLD ([1]; AML17): 1.01
- IL-3R FOLD ([1]; AML17): 1.12
- KIT FOLD ([1]; AML17): 1.17
- GM-CSFR MFI ([1]; AML18): 13295 MFI
- IL-3R MFI ([1]; AML18): 2046 MFI
- KIT MFI ([1]; AML18): 1285 MFI
- GM-CSFR FOLD ([1]; AML18): 1.08
- IL-3R FOLD ([1]; AML18): 1.00
- KIT FOLD ([1]; AML18): 1.36
- GM-CSFR MFI ([1]; AML34): 3573 MFI
- IL-3R MFI ([1]; AML34): 397 MFI
- KIT MFI ([1]; AML34): 4661 MFI
- GM-CSFR FOLD ([1]; AML34): 1.00
- IL-3R FOLD ([1]; AML34): 0.99
- KIT FOLD ([1]; AML34): 1.07
- GM-CSFR MFI ([1]; AML54): 1872 MFI
- IL-3R MFI ([1]; AML54): 508 MFI
- KIT MFI ([1]; AML54): 10397 MFI
- GM-CSFR FOLD ([1]; AML54): 1.08
- IL-3R FOLD ([1]; AML54): 0.86
- KIT FOLD ([1]; AML54): 0.90
- internalization of IL-3R and GM-CSFR ([1]; patient-derived AML cells stimulated with IL-3 and GM-CSF, result in words): prevented the internalization
- Relative % viable cells ([2]; ALL8, dose 0.04 (unit uncertain)): 90.4% and 94.4%
- Relative % viable cells ([2]; ALL8, dose 0.2 (unit uncertain)): 80.81% and 92.6%
- Relative % viable cells ([2]; ALL8, dose 1 (unit uncertain)): 72.11% and 72.9% and 110.2%
- Relative % viable cells ([2]; ALL8, dose 5 (unit uncertain)): 59.7% and 59.2%
- Relative % viable cells ([2]; ALL8, dose 125 (unit uncertain)): 1.3% and 3.1% and 2.3%
- Relative % viable cells ([2]; ALL29, dose 0.04 (unit uncertain)): 101.7% and 96.7%
- Relative % viable cells ([2]; ALL29, dose 0.2 (unit uncertain)): 96.7% and 101.5%
- Relative % viable cells ([2]; ALL29, dose 5 (unit uncertain)): 40.7% and 42.8%
- Relative % viable cells ([2]; ALL29, dose 125 (unit uncertain)): 9.1% and 6.3% and 3%
- Relative % viable cells ([2]; ALL33, dose 0.04 (unit uncertain)): 93.7% and 90.9%
- Relative % viable cells ([2]; ALL33, dose 0.2 (unit uncertain)): 85.9%
- Relative % viable cells ([2]; ALL33, dose 5 (unit uncertain)): 38.4% and 45.6%
- Relative % viable cells ([2]; ALL33, dose 25 (unit uncertain)): 25.8% and 17.5%
- Relative % viable cells ([2]; ALL33, dose 125 (unit uncertain)): 0%
- Relative % viable cells ([2]; ETP1, dose 0.04 (unit uncertain)): 101.2%
- Relative % viable cells ([2]; ETP1, dose 0.2 (unit uncertain)): 100.4% and 100%
- Relative % viable cells ([2]; ETP1, dose 1 (unit uncertain)): 99.9% and 99.8%
- Relative % viable cells ([2]; ETP1, dose 5 (unit uncertain)): 98.2%
- Relative % viable cells ([2]; ETP1, dose 25 (unit uncertain)): 36.3% and 35.6%
- Relative % viable cells ([2]; ETP1, dose 125 (unit uncertain)): 7% and 0%
- Relative % viable cells ([2]; ETP5, dose 0.04 (unit uncertain)): 102.7%
- Relative % viable cells ([2]; ETP5, dose 0.2 (unit uncertain)): 95.7% and 97.2%
- Relative % viable cells ([2]; ETP5, dose 1 (unit uncertain)): 97.7%
- Relative % viable cells ([2]; ETP5, dose 5 (unit uncertain)): 90.9% and 92.8%
- Relative % viable cells ([2]; ETP5, dose 25 (unit uncertain)): 25.9% and 13.9%
- Relative % viable cells ([2]; ETP5, dose 125 (unit uncertain)): 2.9% and 6.9% and 3.5%
- Relative % viable cells ([2]; ETP12, dose 0.04 (unit uncertain)): 107.6% and 104.3%
- Relative % viable cells ([2]; ETP12, dose 0.2 (unit uncertain)): 95.8% and 90.7%
- Relative % viable cells ([2]; ETP12, dose 5 (unit uncertain)): 77.5%
- Relative % viable cells ([2]; ETP12, dose 25 (unit uncertain)): 2.7% and 1.6% and 1.1%
- Relative % viable cells ([2]; ETP12, dose 125 (unit uncertain)): 2.6% and 7.9% and 2%
- Relative % viable cells ([2]; ETP13, dose 0.04 (unit uncertain)): 91.2% and 89.4%
- Relative % viable cells ([2]; ETP13, dose 0.2 (unit uncertain)): 91.8% and 87.5%
- Relative % viable cells ([2]; ETP13, dose 1 (unit uncertain)): 90.4% and 102.1%
- Relative % viable cells ([2]; ETP13, dose 5 (unit uncertain)): 60.7% and 66.4% and 84.4%
- Relative % viable cells ([2]; ETP13, dose 25 (unit uncertain)): 4.2% and 3.5%
- Relative % viable cells ([2]; ETP13, dose 125 (unit uncertain)): 1.5% and 2.3% and 0.7%
- Relative % viable cells ([2]; ETP14, dose 0.04 (unit uncertain)): 74% and 80.7% and 108.4%
- Relative % viable cells ([2]; ETP14, dose 0.2 (unit uncertain)): 80.8% and 85.9%
- Relative % viable cells ([2]; ETP14, dose 1 (unit uncertain)): 56.6% and 73.2% and 82.4%
- Relative % viable cells ([2]; ETP14, dose 5 (unit uncertain)): 58.1% and 85.7% and 56%
- Relative % viable cells ([2]; ETP14, dose 25 (unit uncertain)): 10.8% and 11.5%
- CC50 ([2]; ALL8, Relapse, Mature): 5.76 µM
- CC50 ([2]; ALL29, Diagnosis, Mature): 4.51 µM
- CC50 ([2]; ALL33, Diagnosis, Mature): 2.43 µM
- CC50 ([2]; ETP1, Diagnosis, ETP): 19.9 µM
- CC50 ([2]; ETP5, Diagnosis, ETP): 49.9 µM
- CC50 ([2]; ETP12, Diagnosis, ETP): 4.26 µM
- CC50 ([2]; ETP13, Diagnosis, ETP): 7.05 µM
- CC50 ([2]; ETP14, Diagnosis, ETP): 5.25 µM
